In patent US6974870B2, “Substituted 3-amino-thieno [2,3-b]pyridine-2-carboxylic acid amide compounds and processes for preparing and their uses” (Boehringer Ingelheim Phamaceuticals, Inc., priority 2002, dated 2005):
pIC50: −log10 of the molar value.

target: T1, human IKKβ (Homo sapiens, UniProt O14920); assay: IKKβ kinase inhibition assay (phosphorylation of IκBα substrate, 33P-ATP); format: biochemical; settings: flag-tagged human IKKβ 0.9 μg/ml, GST-IκBα (1-54) 53 μg/ml, 250 nM ATP, 1 hour at 25° C.
T1 construct: FLAG (N)
T1 sequence (O14920 1-756): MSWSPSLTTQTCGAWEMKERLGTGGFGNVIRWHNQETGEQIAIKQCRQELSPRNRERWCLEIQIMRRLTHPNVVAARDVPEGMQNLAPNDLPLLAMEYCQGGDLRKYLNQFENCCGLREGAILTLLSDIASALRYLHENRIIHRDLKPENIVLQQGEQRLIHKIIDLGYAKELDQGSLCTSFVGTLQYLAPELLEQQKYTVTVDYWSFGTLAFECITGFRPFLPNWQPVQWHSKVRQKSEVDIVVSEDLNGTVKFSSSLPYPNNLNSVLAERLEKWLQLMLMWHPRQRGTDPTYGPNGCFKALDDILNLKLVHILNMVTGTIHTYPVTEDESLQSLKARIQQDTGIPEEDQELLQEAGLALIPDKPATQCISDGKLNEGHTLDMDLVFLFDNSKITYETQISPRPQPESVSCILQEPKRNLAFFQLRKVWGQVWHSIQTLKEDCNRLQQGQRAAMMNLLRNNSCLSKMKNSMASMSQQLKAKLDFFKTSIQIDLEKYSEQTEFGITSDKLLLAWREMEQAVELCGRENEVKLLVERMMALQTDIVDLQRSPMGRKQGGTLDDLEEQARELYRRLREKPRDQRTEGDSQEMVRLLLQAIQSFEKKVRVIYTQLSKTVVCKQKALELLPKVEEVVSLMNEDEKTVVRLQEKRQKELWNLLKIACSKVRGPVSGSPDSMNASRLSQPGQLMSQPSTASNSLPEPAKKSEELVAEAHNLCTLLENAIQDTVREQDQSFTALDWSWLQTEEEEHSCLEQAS
Method: (§1) The inhibition of IKKα and IKKβ by the compounds of the present invention was determined with the following assay that measures the phosphorylation of the IκBα substrate by the respective kinases. The enzymes used in the assay were N-terminally flag-tagged versions of the human IKKβ or IKKα and the substrate was a GST fusion protein with IκBα (amino acids 1-54).
(§2) The reaction mixtures (60 μl) contained 20 mM HEPES pH 7.5, 10 mM MgCl2, 2 mM MnCl2, 100 mM NaCl, 100 μM Na3VO4, 20 mM β-glycerophosphate, 1 mM DTT, 2% DMSO, 250 nM ATP, 0.4 nM [^33P]ATP (specific activity, 3000 Ci/mmol), IκBα substrate, IKK enzyme and test compound. The reaction mixtures contained either 3.6 μg/ml IKKα and 245 μg/ml IκBα or 0.9 μg/ml IKKβ and 53 μg/ml IκBα.
(§3) Reactions were initiated by adding a solution of IκBα substrate and ATP to polypropylene plates containing IKK enzyme that was pre-incubated for 5 minutes with test compound. Then the reaction mixtures were incubated for 1 hour at 25° C., placed on ice and quenched by the addition of 150 μl 10% trichloroacetic acid and 5% disodium pyrophosphate. After mixing, the entire contents of the quenched reaction mixtures were transferred to a pre-wetted Packard UniFilter filtration plate, aspirated and washed 6 times with 250 μl of ddH2O using the Packard Filtermate Harvester. Filtration plates were then air dried, supplemented with 40 μl of Microscint 20 scintillation fluid and the ^33P-labeled reaction products were quantified using the Packard TopCount scintillation counter.
(§4) Compounds were tested in three-fold serial dilutions and inhibitor concentrations to achieve 50% inhibition of enzyme activity (i.e., IC50) were derived from dose-reponse curves using SAS software (SAS Institute, Cary N.C.). A non-linear regression analysis based on the Hill equation was applied to the percent inhibition versus concentration data. In all cases, compound concentrations were verified by HPLC.

Compound | pIC50
CCCc1cc(N2CCC(NCC(O)C(=O)Nc3ccccc3)CC2)nc2sc(C(N)=O)c(N)c12 (stereo not shown) [3-Amino-6-[4-(2-hydroxy-2-phenylcarbamoyl-ethylamino)-piperidin-1-yl]-4-propyl-thieno[2,3-b] pyridine-2-carboxylic acid amide] | > 6.00
CCCc1cc(N2CCC(NCC(=O)NCCO)CC2)nc2sc(C(N)=O)c(N)c12 [3-Amino-6-(4-{[(2-hydroxy-ethylcarbamoyl)-methyl]-amino}-piperidin-1-yl)-4-propyl-thieno[2,3-b] pyridine-2-carboxylic acid amide] | > 6.00
CCCc1cc(N2CCC(NCC(O)c3ccc(-c4ccncc4)cc3)CC2)nc2sc(C(N)=O)c(N)c12 (stereo not shown) [3-Amino-6-{4-[2-hydroxy-2-(4-pyridin-4-yl-phenyl)-ethylamino]-piperidin-1-yl}-4-propyl-thieno[2,3-b] pyridine-2-carboxylic acid amide] | > 6.00
CCCc1cc(N2CCC(NCC(=O)Nc3cccc(C(N)=O)c3)CC2)nc2sc(C(N)=O)c(N)c12 [3-Amino-6-(4-{[(3-carbamoyl-phenylcarbamoyl)-methyl]-amino}-piperidin-1-yl)-4-propyl-thieno[2,3-b] pyridine-2-carboxylic acid amide] | > 6.00
CCCc1cc(N2CCC(NCC(O)Cc3ccc(C(N)=O)cc3)CC2)nc2sc(C(N)=O)c(N)c12 (stereo not shown) [3-Amino-6-{4-[3-(4-carbamoyl-phenyl)-2-hydroxy-propylamino]-piperidin-1-yl}-4-propyl-thieno[2,3-b] pyridine-2-carboxylic acid amide] | > 6.00
CCCc1cc(N2CCC(NCC(O)COc3ccc(C(F)(F)F)cc3)CC2)nc2sc(C(N)=O)c(N)c12 (stereo not shown) [3-Amino-6-{4-[2-hydroxy-3-(4-trifluoromethyl-phenoxy)-propylamino]-piperidin-1-yl}-4-propyl-thieno[2,3-b] pyridine-2-carboxylic acid amide] | > 6.00
CCCc1cc(N2CCC(NCC(O)c3cccc(-c4ccccn4)c3)CC2)nc2sc(C(N)=O)c(N)c12 (stereo not shown) [3-Amino-6-{4-[2-hydroxy-2-(3-pyridin-2-yl-phenyl)-ethylamino]-piperidin-1-yl}-4-propyl-thieno[2,3-b] pyridine-2-carboxylic acid amide] | > 6.00
CCCc1cc(N2CCC(NCC(O)COc3ccc(C#N)cc3)CC2)nc2sc(C(N)=O)c(N)c12 (stereo not shown) [3-Amino-6-{4-[3-(4-cyano-phenoxy)-2-hydroxy-propylamino]-piperidin-1-yl}-4-propyl-thieno[2,3-b] pyridine-2-carboxylic acid amide] | > 6.00
CCCc1cc(N2CCC(NCC(=O)NCC(N)=O)CC2)nc2sc(C(N)=O)c(N)c12 [3-Amino-6-(4-{[(carbamoylmethyl-carbamoyl)-methyl]-amino}-piperidin-1-yl)-4-propyl-thieno[2,3-b] pyridine-2-carboxylic acid amide] | > 6.00
CCCc1cc(N2CCC(NCC(O)c3ccc(-c4cncnc4)cc3)CC2)nc2sc(C(N)=O)c(N)c12 (stereo not shown) [3-Amino-6-{4-[2-hydroxy-2-(4-pyrimidin-5-yl-phenyl)-ethylamino]-piperidin-1-yl}-4-propyl-thieno[2,3-b] pyridine-2-carboxylic acid amide] | > 6.00

target: T2, human IKKα (Homo sapiens, UniProt O15111); assay: IKKα kinase inhibition assay (phosphorylation of IκBα substrate, 33P-ATP); format: biochemical; settings: flag-tagged human IKKα 3.6 μg/ml, GST-IκBα (1-54) 245 μg/ml, 250 nM ATP, 1 hour at 25° C.
T2 construct: FLAG (N)
T2 sequence (O15111 1-745): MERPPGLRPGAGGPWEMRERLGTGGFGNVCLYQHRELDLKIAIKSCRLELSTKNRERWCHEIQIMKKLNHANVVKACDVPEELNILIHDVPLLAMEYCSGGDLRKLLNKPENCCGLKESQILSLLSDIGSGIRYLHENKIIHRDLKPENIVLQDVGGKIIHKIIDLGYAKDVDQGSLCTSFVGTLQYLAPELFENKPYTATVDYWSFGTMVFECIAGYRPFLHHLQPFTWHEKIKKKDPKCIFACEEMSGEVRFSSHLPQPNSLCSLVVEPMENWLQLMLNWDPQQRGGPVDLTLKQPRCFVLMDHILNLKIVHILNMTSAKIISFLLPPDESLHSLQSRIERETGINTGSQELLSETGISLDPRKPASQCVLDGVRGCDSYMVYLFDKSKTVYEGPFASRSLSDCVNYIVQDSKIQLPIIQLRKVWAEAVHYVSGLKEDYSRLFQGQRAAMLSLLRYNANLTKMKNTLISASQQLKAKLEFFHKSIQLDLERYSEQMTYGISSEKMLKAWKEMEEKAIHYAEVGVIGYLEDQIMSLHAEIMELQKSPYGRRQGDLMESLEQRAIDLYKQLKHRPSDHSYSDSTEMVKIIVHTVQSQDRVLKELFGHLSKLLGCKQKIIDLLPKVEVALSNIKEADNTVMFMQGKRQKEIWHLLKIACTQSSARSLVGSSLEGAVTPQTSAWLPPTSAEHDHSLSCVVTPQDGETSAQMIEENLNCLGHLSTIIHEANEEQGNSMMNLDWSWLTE
Method: as §1, §2, §3, §4

Compound | pIC50
NC(=O)c1sc2nc(N3CCC(N)CC3)cc(C(=O)NCCCN3CCOCC3)c2c1N [33-Amino-6-(4-amino-piperidin-1-yl)-thieno[2,3-b]pyridine-2,4-dicarboxylic acid 2-amide 4-[(3-morpholin-4-yl-propyl)-amide]] | ≥ 5.00
NC(=O)c1sc2nc(N3CCC(NCC(O)c4ccc(F)c(F)c4)CC3)cc(C(F)(F)F)c2c1N (stereo not shown) [3-Amino-6-{4-[2-(3,4-difluoro-phenyl)-2-hydroxy-ethylamino]-piperidin-1-yl}-4-trifluoromethyl-thieno[2,3-b]pyridine-2-carboxylic acid amide] | ≥ 5.00
CSc1cc(N2CCC(N)CC2)nc2sc(C(N)=O)c(N)c12 [3-Amino-6-(4-amino-piperidin-1-yl)-4-methylsulfanyl-thieno[2,3-b]pyridine-2-carboxylic acid amide] | ≥ 5.00
CCCc1cc(N2CCC(NCC(O)c3ccc(C(=O)NCc4cccnc4)cc3)CC2)nc2sc(C(N)=O)c(N)c12 (stereo not shown) [3-Amino-6-[4-(2-hydroxy-2-{4-[(pyridin-3-ylmethyl)-carbamoyl]-phenyl}-ethylamino)-piperidin-1-yl]-4-propyl-thieno[2,3-b] pyridine-2-carboxylic acid amide] | ≥ 5.00
CC(C)Oc1ccnc2sc(C(N)=O)c(N)c12 [3-Amino-4-isopropoxy-thieno[2,3-b]pyridine-2-carboxylic acid amide] | ≥ 5.00
CCCc1cc(N2CCC(NCC(O)c3ccc(C(=O)NCc4cccc(C(N)=O)c4)cc3)CC2)nc2sc(C(N)=O)c(N)c12 (stereo not shown) [3-Amino-6-(4-{2-[4-(3-carbamoyl-benzylcarbamoyl)-phenyl]-2-hydroxy-ethylamino}-piperidin-1-yl)-4-propyl-thieno[2,3-b] pyridine-2-carboxylic acid amide] | ≥ 5.00
CCCc1cc(N2CC[C@@H](N)C2)nc2sc(C(N)=O)c(N)c12 [3-Amino-6-((R)-3-amino-pyrrolidin-1-yl)-4-propyl-thieno[2,3-b] pyridine-2-carboxylic acid amide] | ≥ 5.00
CCCc1cc(N2CCC(N)(C#N)CC2)nc2sc(C(N)=O)c(N)c12 [3-Amino-6-(4-amino-4-cyano-piperidin-1-yl)-4-propyl-thieno[2,3-b] pyridine-2-carboxylic acid amide] | ≥ 5.00
Cc1cc(/C=C/c2ccc(F)cc2)c2c(N)c(C(N)=O)sc2n1 [3-Amino-4-[(E)-2-(4-fluoro-phenyl)-vinyl]-6-methyl-thieno[2,3-b]pyridine-2-carboxylic acid amide] | ≥ 5.00
Cc1cc(-c2ccco2)c2c(N)c(C(N)=O)sc2n1 [3-Amino-4-furan-2-yl-6-methyl-thieno[2,3-b]pyridine-2-carboxylic acid amide] | ≥ 5.00
CCCc1cc(N2CCC(NCC(O)c3ccc(NS(C)(=O)=O)cc3)CC2)nc2sc(C(N)=O)c(N)c12 (stereo not shown) [3-Amino-6-{4-[2-hydroxy-2-(4-methanesulfonylamino-phenyl)-ethylamino]-piperidin-1-yl}-4-propyl-thieno[2,3-b] pyridine-2-carboxylic acid amide] | ≥ 5.00
Cc1cc(/C=C/c2ccc(Cl)cc2)c2c(N)c(C(N)=O)sc2n1 [3-Amino-4-[(E)-2-(4-chloro-phenyl)-vinyl]-6-methyl-thieno[2,3-b]pyridine-2-carboxylic acid amide] | ≥ 5.00
